# Measurements: patent US4450269A, “Mono-5-substituted-3-chloro-4H-1,2,6-thiadiazin-4-one antifungal agents” (FMC Corporation, priority 1980, dated 1984)
# Where two headings read alike, the source gives them in different places.
# Key:
# [1] = test system: Rhizoctonia solani; experiment: Mycelial growth test; assay type: cell-based; conditions: Rhizoctonia solani, 72 h, RS, read-out: Percent Fungus Growth Inhibition
# Text: | RS = Rhizoctonia solani
# [2] = test system: Phytophthora infestans; assay type: cell-based; conditions: PI, 48 hours
Structure (SMILES),inhibition at 5 ppm [1],inhibition at 10 ppm [1],inhibition at 20 ppm [1],inhibition at 40 ppm [1],Spore Germination Rating ([2]; 1.0 ppm),Spore Germination Rating ([2]; 2.5 ppm),Spore Germination Rating ([2]; 10 ppm),Spore Germination Rating ([2]; 40 ppm)
"O=c1c(Cl)nsnc1Oc1ccc(Cl)cc1 [Compound 12, 3-chloro-5-(4-chlorophenoxy)-4H--1,2,6-thiadiazin-4-one]",20%,58%,64%,100%,1 (10-40),1 (10-40),1 (10-40),0 (0-10)
"O=c1c(Cl)nsnc1Oc1cccc(Cl)c1Cl [Compound 19, 3-chloro-5-(2,3-dichlorophenoxy)-4H--1,2,6-thiadiazin-4-one]",29%,47%,69%,82%,3 (60-80),0 (0-10),0 (0-10),0 (0-10)
"CSc1ccc(Oc2nsnc(Cl)c2=O)cc1 [Compound 39, 3-chloro-5-[(4-methylthio)phenoxy]-4H-1,2,6,-thiadiazin-4-one]",24%,31%,31%,42%,4 (80-100),4 (80-100),3 (60-80),3 (60-80)
"O=c1c(Cl)nsnc1Oc1c(Cl)cc(Cl)cc1Cl [Compound 30, 3-chloro-5-(2,4,6-trichlorophenoxy)-4H--1,2,6-thiadiazin-4-one]",42%,62%,69%,80%,4 (80-100),1 (10-40),0 (0-10),0 (0-10)
"CC(=O)Nc1ccccc1Oc1nsnc(Cl)c1=O [Compound 43, 3-[(2-acetylamino)-phenoxy]-5-chloro-4H--1,2,6-thiadiazin-4-one]",0%,0%,11%,24%,4 (80-100),4 (80-100),4 (80-100),2 (40-60)
"CNC(=O)Nc1ccc(Oc2nsnc(Cl)c2=O)cc1 [Compound 28, 3-chloro-5-[4-(3-methylureido)-phenoxy]-4H--1,2,6-thiadiazin-4-one]",20%,47%,24%,47%,4 (80-100),4 (80-100),4 (80-100),2 (40-60)
"CC(=O)c1ccccc1Oc1nsnc(Cl)c1=O [Compound 49, 3-(2-acetylphenoxy)-5-chloro-4H--1,2,6-thiadiazin-4-one]",9%,24%,42%,64%,3 (60-80),1 (10-40),1 (10-40),1 (10-40)
"COc1ccc(Cl)c(Oc2nsnc(Cl)c2=O)c1 [Compound 51, 3-chloro-5-[(2-chloro-5-methoxy)phenoxy]-4H--1,2,6-thiadiazin-4-one]",20%,56%,82%,100%,4 (80-100),3 (60-80),1 (10-40),0 (0-10)
"O=C(O)Cc1ccccc1Oc1nsnc(Cl)c1=O [Compound 45, 3-(2-carboxymethylphenoxy)-5-chloro-4H--1,2,6-thiadiazin-4-one]",0%,0%,13%,42%,4 (80-100),4 (80-100),0 (0-10),0 (0-10)
